Literature values in US20060122261A1, “[METHOD OF PREPARING LABDANE DITERPENE COMPOSITION, PREFERABLY ISOFORSKOLIN AND DEACETYLFORSKOLIN FROM FORSKOLIN EXTRACT AND THEIR USE FOR PROMOTING LEAN BODY MASS AND OTHER APPLICATIONS]” (priority 2003, published 2006).

Experiments:
[1] = Rupp, de Souza, Dohadwalla 1985
adenylate cyclase = settings: Rupp, de Souza, Dohadwalla 1985

SMILES	Effectiveness as hypotensive, anti-hypertensive, positive inotropic relative to Forskolin [1]	Effectiveness as adenylate cyclase activator relative to Forskolin (adenylate cyclase)
C=C[C@@]1(C)CC(=O)[C@]2(O)[C@@]3(C)[C@@H](O)CCC(C)(C)[C@@H]3[C@H](O)[C@H](O)[C@@]2(C)O1 [7-deacetylforskolin]	equally effective as Forskolin	equally effective as Forskolin
C=C[C@@]1(C)CC(=O)[C@@]2(O)[C@](C)(O1)[C@@H](O)[C@@H](OC(C)=O)C1C(C)(C)CC[C@H](O)[C@@]12C (stereo partly shown) [6-acetyl-7-deacetylforskolin]	equally effective as Forskolin	equally effective as Forskolin
